# Measurements from ChEMBL document CHEMBL5052856, “Inhibitors of apol1 and methods of using same” (2021).
# Legend:
# Apolipoprotein L1 = Apolipoprotein L1 (Homo sapiens, UniProt O14791); test: Inhibition of APOL1 G1 variant in human HEK293-T-REx cells measured by Thallium assay; assay type: cell-based
# [1] = test system: Trypanosoma brucei brucei; test: Antitrypanosomal activity against Trypanosoma brucei brucei assessed as trypanosome lysis using recombinant APOL1 protein G1 variant and measured by Alamar blue based fluoresence assay; assay type: functional, organism-based
Structure (SMILES),IC50 (Apolipoprotein L1) [µM],IC50 [1] [µM]
O=C([C@H]1C[C@H](c2c(-c3ccc(F)cc3)[nH]c3c(F)cc(F)cc32)C1)N1CCN(CCO)CC1,> 1,> 1
CCN(CCO)C(=O)[C@H]1C[C@H](c2c(-c3ccc(F)cc3)[nH]c3c(F)cc(F)cc32)C1,0.00025,0.25
CC(CO)N1CCN(C(=O)[C@H]2C[C@H](c3c(-c4ccc(F)cc4)[nH]c4c(F)cc(F)cc43)C2)CC1 (some centres not stated),> 1,> 1
O=C([C@H]1C[C@H](c2c(-c3ccc(F)cc3)[nH]c3c(F)cc(F)cc32)C1)N(CCO)CCCO,> 1,0.25
CC(C)N(CCO)C(=O)[C@H]1C[C@H](c2c(-c3ccc(F)cc3)[nH]c3c(F)cc(F)cc32)C1,> 1,0.25
CC(O)CN(CCO)C(=O)[C@H]1C[C@H](c2c(-c3ccc(F)cc3)[nH]c3c(F)cc(F)cc32)C1 (some centres not stated),0.00025,< 0.25
O=C(NCCOCCO)[C@H]1C[C@H](c2c(-c3ccc(F)cc3)[nH]c3c(F)cc(F)cc32)C1,< 0.25,< 0.25
O=C([C@H]1C[C@H](c2c(-c3ccc(F)cc3)[nH]c3c(F)cc(F)cc32)C1)N1CCO[C@H](CO)C1,> 1,> 1
CC1(C)CN(C(=O)[C@H]2C[C@H](c3c(-c4ccc(F)cc4)[nH]c4c(F)cc(F)cc43)C2)CCC1O (some centres not stated),> 1,> 1
CC1(O)CC(C(=O)N2CCN(C(=O)[C@H]3C[C@H](c4c(-c5ccc(F)cc5)[nH]c5c(F)cc(F)cc54)C3)CC2(C)C)C1 (some centres not stated),> 1,> 1
O=C([C@H]1C[C@H](c2c(-c3ccc(F)cc3)[nH]c3c(F)cc(F)cc32)C1)N1CCCC(CCO)C1 (some centres not stated),> 1,> 1
NC(=O)[C@@H]1CCN(C(=O)[C@H]2C[C@H](c3c(-c4ccc(F)cc4)[nH]c4c(F)cc(F)cc43)C2)C1,> 1,> 1
O=C([C@H]1C[C@H](c2c(-c3ccc(F)cc3)[nH]c3c(F)cc(F)cc32)C1)N1CCOC(O)C1 (some centres not stated),0.00025,< 0.25
CCC1(O)CN(C(=O)[C@H]2C[C@H](c3c(-c4ccc(F)cc4)[nH]c4c(F)cc(F)cc43)C2)C1,> 1,> 1
O=C([C@H]1C[C@H](c2c(-c3ccc(F)cc3)[nH]c3c(F)cc(F)cc32)C1)N1CC(OCC2CCCO2)C1 (some centres not stated),> 1,> 1
NC(=O)C1CCN(C(=O)[C@H]2C[C@H](c3c(-c4ccc(F)cc4)[nH]c4c(F)cc(F)cc43)C2)CC1,> 1,> 1
C[C@H]1CN(C(=O)[C@H]2C[C@H](c3c(-c4ccc(F)cc4)[nH]c4c(F)cc(F)cc43)C2)CC[C@@H]1O,> 1,> 1
CC(O)C1CCN(C(=O)[C@H]2C[C@H](c3c(-c4ccc(F)cc4)[nH]c4c(F)cc(F)cc43)C2)CC1 (some centres not stated),> 1,> 1
O=C([C@H]1C[C@H](c2c(-c3ccc(F)cc3)[nH]c3c(F)cc(F)cc32)C1)N1CCC(CCO)CC1,> 1,> 1
CCC(O)(CCCO)CNC(=O)[C@H]1C[C@H](c2c(-c3ccc(F)cc3)[nH]c3c(F)cc(F)cc32)C1 (some centres not stated),> 1,> 1
O=C([C@H]1C[C@H](c2c(-c3ccc(F)cc3)[nH]c3c(F)cc(F)cc32)C1)N1CCC(O)(O)CC1,> 1,0.25
CCN(C(=O)[C@H]1C[C@H](c2c(-c3ccc(F)cc3)[nH]c3c(F)cc(F)cc32)C1)C(C)CO (some centres not stated),> 1,0.25
CN(CC1(CO)CCOCC1)C(=O)[C@H]1C[C@H](c2c(-c3ccc(F)cc3)[nH]c3c(F)cc(F)cc32)C1,> 1,> 1
O=C([C@H]1C[C@H](c2c(-c3ccc(F)cc3)[nH]c3c(F)cc(F)cc32)C1)N(CCOCCO)C1CCC1,> 1,> 1
O=C([C@H]1C[C@H](c2c(-c3ccc(F)cc3)[nH]c3c(F)cc(F)cc32)C1)N1CCOCC1CCO (some centres not stated),> 1,> 1
O=C([C@H]1C[C@H](c2c(-c3ccc(F)cc3)[nH]c3c(F)cc(F)cc32)C1)N(CCO)c1cnccn1,> 1,> 1
